These results are taken from US8551965B2, “Anti-viral pyrimidine nucleoside analogues” (University College Cardiff Consultants Limited, priority 2000, dated 2013).

Structures are written as SMILES. Where two headings read alike, the source gives them in different places. Some results are limits rather than exact numbers.

Format in all cases: cell-based
Data set [1] concerns human embryonic lung cells. Briefly: Cytotoxicity to human embryonic lung cells. To be noted: minimum cytotoxic concentration to human embryonic lung cells. The source says:
MCC AM is the minimum cytotoxic concentration to human embryonic lung cells.

Data set [2] concerns varicella zoster virus (VZV) YS viral strain. Briefly: VZV plaque reduction in tissue culture, YS strain. To be noted: read-out: EC50 VZV YS.
The nature of data set [3]: Cytotoxicity to human embryonic lung cells. To be noted: 50% cytotoxic concentration to human embryonic lung cells.
Data set [4] relates to varicella zoster virus (VZV) viral strain 07; TK deficient. Briefly: microbe, parasite or virus in culture. The following applies: read-out: EC50 VZV TK-07.
For data set [5], the system named is varicella zoster virus (VZV) viral strain YS; TK deficient. Kind of data set: VZV plaque reduction in tissue culture, strain YS, TK deficient. The following applies: read-out: EC50 VZV TK-YS.
Data set [6] has as its system varicella zoster virus (VZV) OKA viral strain. Briefly: microbe, parasite or virus in culture. The following applies: read-out: EC50 VZV OKA.
Data set [7] deals with human embryonic lung cells. Kind of data set: Cytotoxicity to human embryonic lung cells. The following applies: 50% cytotoxic concentration to human embryonic lung cells.
The mark [8] stands for this setting: Human alphaherpesvirus 3, 120 h, reduce viral plaque formation after 5 days by 50% compared to untreated control, YS viral strain.
The mark [9] stands for this setting: Human alphaherpesvirus 3, 120 h.
Setting [10] is: reduce viral plaque formation after 5 days by 50%, viral strain 07, TK deficient.
[11] abbreviates: reduce viral plaque formation after 5 days by 50%, viral strain YS, TK deficient.
Setting [12] is: reduce viral plaque formation after 5 days by 50% compared to untreated control, OKA viral strain.
Setting [13] is: reduce viral plaque formation after 5 days by 50% compared to untreated control, YS viral strain.

The EC50 is the concentration at which the effect is half-maximal. For orientation: CC50 means the concentration that lowers cell viability or growth by half. A higher CC50 goes with lower toxicity to the cells. Consider `Nc1nc2c(ncn2COCCO)c(=O)[nH]1` [Acyclovir, reference compound], for which, in data set [1], the MCC is above 200 µM. The EC50 in data set [2] (setting [8]) was determined as 1 µM. For the same compound, in data set [3], the CC50 is above 200 µM.

As for `O=c1[nH]c(=O)n([C@H]2C[C@H](O)[C@@H](CO)O2)cc1/C=C/Br` [BVDU, (E)-5-(2-bromo-vinyl)-2′-deoxyuridine, reference compound], the EC50 in data set [2] (setting [9]) amounted to 0.003 µM.

In the case of `CCCCCCCCCCc1cc2cn([C@H]3C[C@H](O)[C@@H](CO)O3)c(=O)nc2o1` [Ex2 WO 98/49177, 3-(2-deoxy-β-D-ribofuranosyl)-6-decyl-2,3-dihydrofuro [2,3-d]pyrimidin-2-one, reference compound], the EC50 in data set [4] (setting [9]) is above 50 µM; in data set [5] (setting [9]) it was above 50 µM; in data set [6] (setting [9]) it was 0.015 µM; in data set [2] (setting [8]) it was 0.008 µM. Also, the MCC in data set [1] was above 50 µM. This compound also had a CC50 in data set [3] above 50 µM.

As for `CCCCCCCCc1ccc(-c2cc3cn([C@H]4C[C@H](O)[C@@H](CO)O4)c(=O)nc3o2)cc1` [Example 6, 3-(2′-deoxy-β-D-ribofuranosyl)-6-(4-n-octylphenyl)-2,3-dihydrofuro[2,3-d]pyrimidin-2-one], the EC50 in data set [4] (setting [10]) was above 20 µM; in data set [5] (setting [11]), above 20 µM; in data set [6] (setting [12]), 0.015 µM; in data set [2] (setting [13]), 0.005 µM. Further, the MCC result in data set [1] is listed as “≧20 μM”. This compound showed a CC50 in data set [7] above 200 µM.

Take `O=c1nc2oc(-c3ccccc3)cc2cn1[C@H]1C[C@H](O)[C@@H](CO)O1` [Example 7, 3-(2′-deoxy-β-D-ribofuranosyl)-6-(phenyl)-2,3-dihydrofuro-[2,3-d]pyrimidin-2-one]: the EC50 in data set [4] (setting [10]) was above 200 µM; in data set [5] (setting [11]) it was 162 µM; in data set [6] (setting [12]), below 0.5 µM; in data set [2] (setting [13]), below 0.5 µM. Besides, in data set [1], the MCC was above 200 µM. In addition, the CC50 in data set [7] was above 200 µM.

For `Cc1ccc(-c2cc3cn([C@H]4C[C@H](O)[C@@H](CO)O4)c(=O)nc3o2)cc1` [Example 8, 3-(2′-deoxy-β-D-ribofuranosyl)-6-(4-methylphenyl)-2,3-dihydrofuro-[2,3-d]pyrimidin-2-one], the EC50 in data set [4] (setting [10]) is 103 µM; in data set [5] (setting [11]) it was above 200 µM; in data set [6] (setting [12]) it was below 0.5 µM; in data set [2] (setting [13]), below 0.5 µM. In addition, the MCC in data set [1] was above 200 µM. In data set [7], this compound had a 50% cytotoxic concentration (CC50) above 200 µM.

As for `O=c1nc2oc(-c3ccc(F)cc3)cc2cn1[C@H]1C[C@H](O)[C@@H](CO)O1` [Example 10, 3-(2′-deoxy-β-D-ribofuranosyl)-6-(4-fluorophenyl)-2,3-dihydrofuro-[2,3-d]pyrimidin-2-one], the concentration for a half-maximal effect (EC50) in data set [4] (setting [10]), in data set [5] (setting [11]), in data set [6] (setting [12]) and in data set [2] (setting [13]) was above 50 µM in each case. The MCC in data set [1] turned out to be 200 µM. Moreover, the CC50 in data set [7] was 171 µM.

Turning to `O=c1nc2oc(-c3ccc(Cl)cc3)cc2cn1[C@H]1C[C@H](O)[C@@H](CO)O1` [Example 11], the EC50 in data set [4] (setting [9]) is above 20 µM; in data set [5] (setting [9]), above 20 µM; in data set [6] (setting [9]), 0.1 µM; in data set [2] (setting [8]), 0.08 µM. The MCC result in data set [1] is recorded as “≧20 μM”. The compound also gave a CC50 in data set [3] above 200 µM.

With `O=c1nc2oc(-c3ccc(Br)cc3)cc2cn1[C@H]1C[C@H](O)[C@@H](CO)O1` [Example 12, 3-(2′-deoxy-β-D-ribofuranosyl)-6-(4-bromophenyl)-2,3-dihydrofuro-[2,3-d]pyrimidin-2-one], the EC50 in data set [4] (setting [9]) is above 5 µM; in data set [5] (setting [9]), above 5 µM; in data set [6] (setting [9]), 0.29 µM; in data set [2] (setting [8]), 0.2 µM. Further, the MCC in data set [1] is above 2 µM. Also, half-maximal cytotoxicity in data set [3] (CC50) was put at 96 µM.

For the compound `COc1ccc(-c2cc3cn([C@H]4C[C@H](O)[C@@H](CO)O4)c(=O)nc3o2)cc1` [Example 14, 3-(2′-deoxy-β-D-ribofuranosyl)-6-(4-methoxyphenyl)-2,3-dihydrofuro-[2,3-d]pyrimidin-2-one], the EC50 was above 50 µM in data set [4] (setting [9]), above 50 µM in data set [5] (setting [9]) and 0.05 µM in data set [2] (setting [8]). Besides, the MCC in data set [1] amounted to 200 µM. Moreover, the CC50 in data set [3] is above 200 µM.

With `CCOc1ccc(-c2cc3cn([C@H]4C[C@H](O)[C@@H](CO)O4)c(=O)nc3o2)cc1` [Example 15, 3-(2′-deoxy-β-D-ribofuranosyl)-6-(4-ethoxyphenyl)-2,3-dihydrofuro-[2,3-d]pyrimidin-2-one], the results for the EC50 in data set [4] (setting [9]), in data set [5] (setting [9]) and in data set [2] (setting [8]) were 50 µM, above 50 µM and 0.01 µM, respectively. This compound showed an MCC in data set [1] of 200 µM. The compound further registered a CC50 in data set [3] above 200 µM.

`CCCOc1ccc(-c2cc3cn([C@H]4C[C@H](O)[C@@H](CO)O4)c(=O)nc3o2)cc1` [Example 16, 3-(2′-deoxy-β-D-ribofuranosyl)-6-(4-n-propoxyphenyl)-2,3-dihydrofuro-[2,3-d]pyrimidin-2-one]: the EC50 in data set [4] (setting [9]) was 11 µM; in data set [5] (setting [9]), above 50 µM; in data set [2] (setting [8]), 0.002 µM. In addition, in data set [1], the MCC entry was “≧200 μM”. Also, the CC50 in data set [3] was above 200 µM.

Consider `CCCCCOc1ccc(-c2cc3cn([C@H]4C[C@H](O)[C@@H](CO)O4)c(=O)nc3o2)cc1` [Example 17, 3-(2′-deoxy-β-D-ribofuranosyl)-6-(4-n-pentoxyphenyl)-2,3-dihydrofuro-[2,3-d]pyrimidin-2-one], for which the figures for the EC50 in data set [4] (setting [9]), in data set [5] (setting [9]) and in data set [2] (setting [8]) were 3.7 µM, above 20 µM and 0.002 µM, respectively. In data set [1], this compound registered an MCC above 50 µM. Further, the CC50 in data set [3] is above 200 µM.

As for `CCCCCCOc1ccc(-c2cc3cn([C@H]4C[C@H](O)[C@@H](CO)O4)c(=O)nc3o2)cc1` [Example 18, 3-(2′-deoxy-β-D-ribofuranosyl)-6(4-n-hexoxyphenyl)-2,3-dihydrofuro-[2,3-d]pyrimidin-2-one], the EC50 in data set [4] (setting [9]) is above 5 µM; in data set [5] (setting [9]), above 20 µM; in data set [2] (setting [8]), 0.002 µM. In data set [1], the MCC is above 20 µM. Further, the CC50 in data set [3] was above 200 µM.

Turning to `CCCCCCCOc1ccc(-c2cc3cn([C@H]4C[C@H](O)[C@@H](CO)O4)c(=O)nc3o2)cc1` [Example 19, 3-(2′-deoxy-β-D-ribofuranosyl)-6-(4-n-heptoxyphenyl)-2,3-dihydrofuro-[2,3-d]pyrimidin-2-one], the EC50 was above 50 µM in data set [4] (setting [9]), above 20 µM in data set [5] (setting [9]) and 0.002 µM in data set [2] (setting [8]). In addition, in data set [1], the MCC entry is “≧50 μM”. Further, the CC50 in data set [3] is above 200 µM.
